≈ marks a conversion by molar mass, not a printed value.
Target: T1, hepatic glucose-6-phosphatase (G6Pase)
T1 construct: gene G6pc1; native, microsomal fraction from livers of starved Wistar rats; not purified; with Glucose-6-phosphate exchanger SLC37A4
Experiment: colorimetric phosphate release assay, rat liver microsomes
Format: biochemical
Conditions: 80 mM glucose-6-phosphate, 40 mM imidazole, 250 mM sucrose, pH 7, 20 °C, 20 min; positive control

IC50: 122.5 µg/mL (≈ 346 µM)
Structure (SMILES): O=C(/C=C/c1ccc(O)c(O)c1)O[C@@H]1C[C@](O)(C(=O)O)C[C@@H](O)[C@H]1O [chlorogenic acid]
